Measurements published in PMC3260785 (The Journal of Physical Chemistry. B, 2011).
pKd: −log10 of the molar value.

Biological target: T1, Formate dehydrogenase (FDH, Candida boidinii) ([Candida] boidinii, UniProt O13437)
T1 sequence (O13437 1-364): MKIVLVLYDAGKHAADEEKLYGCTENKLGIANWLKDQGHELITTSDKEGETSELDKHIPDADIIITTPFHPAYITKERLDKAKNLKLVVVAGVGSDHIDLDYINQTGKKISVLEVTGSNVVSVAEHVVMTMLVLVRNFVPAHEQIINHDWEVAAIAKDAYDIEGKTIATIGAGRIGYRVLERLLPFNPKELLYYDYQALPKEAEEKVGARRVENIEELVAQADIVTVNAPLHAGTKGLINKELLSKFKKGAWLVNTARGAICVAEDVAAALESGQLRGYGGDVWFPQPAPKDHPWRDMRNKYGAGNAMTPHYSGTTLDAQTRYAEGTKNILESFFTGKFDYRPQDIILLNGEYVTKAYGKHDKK
Experiment: isothermal titration calorimetry
Assay type: binding

[N-]=[N+]=NCc1ccc[n+]([C@@H]2O[C@H](COP(=O)(O)OP(=O)(O)OC[C@H]3O[C@@H](n4cnc5c(N)ncnc54)[C@H](O)[C@@H]3O)[C@@H](O)[C@H]2O)c1 [PAAD^+]
pKd: 5.15
